Test results as given in patent US20060004002A1 (priority 2004, published 2006).
pIC50: −log10 of the molar value.

Columns and labels:
Format in all cases: biochemical
FGF receptor (FGFr) = molecular target: T1, FGF receptor (FGFr); test: FGFr tyrosine kinase activity assay with poly E4Y and 32P-ATP; details: NI = no inhibition
T1 construct: fused on or other part: glutathione-S-transferase (GST) from the pGEX vector
Experimental: (§1) Recombinant human Src was expressed using the baculovirus-insect cell system and purified as published (Budde et al., 1993 and 2000). Recombinant Csk and the FGF receptor (FGFr) were expressed as […] fusion proteins using the pGEX expression vector and E. coli, and purified as described (Sun & Budde, 1995).
(§2) The tyrosine kinase activity of Src, Csk and FGFr was determined using poly E4Y and ^32P-ATP. Briefly, enzymes were assayed in a reaction mixture […] consisting of 0.15 M EPPS-NaOH (pH 8.0) with 6 mM MgCl2, 0.2 mM γ^32P-ATP (0.2-0.4 mCi/μmol), 10% glycerol, 0.1% Triton X-100, and poly E4Y. Poly E4Y is a synthetic peptide whose phosphorylation is measured in this assay by the addition of the radioactively labeled phosphate from the ATP (Budde et al., 1995). […] When ATP was varied (0, 50, 100 and 250 μM), poly E4Y was kept constant at 150 μg/ml.

Recombinant human Src = molecular target: T2, Recombinant human Src (Homo sapiens, UniProt P12931); test: Src tyrosine kinase activity assay with poly E4Y and 32P-ATP; details: poly E4Y, 32P-ATP; NI = no inhibition; read-out: IC50 Value Src
T2 construct: made in house; host or cells: baculovirus-insect cell system
In short: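 Src expressed in baculovirus-insect cells; Csk and FGFr expressed as GST fusions in E. coli. Kinase activity measured as 32P transfer from γ32P-ATP (0.2 mM, 0.2-0.4 mCi/μmol) to poly E4Y in 0.15 M EPPS-NaOH pH 8.0, 6 mM MgCl2, 10% glycerol, 0.1% Triton X-100; in ATP-variation runs (0-250 μM), poly E4Y fixed at 150 μg/ml.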

Recombinant Csk = molecular target: T3, Recombinant Csk (Homo sapiens, UniProt P41240); test: Csk tyrosine kinase activity assay with poly E4Y and 32P-ATP; details: NI = no inhibition
T3 construct: GST ('glutathione-5-transferase' [sic]); made in house; host or cells: E. coli (pGEX expression vector)
Experimental: as §1, §2

T3 sequence (P41240 whole entry, species assumed): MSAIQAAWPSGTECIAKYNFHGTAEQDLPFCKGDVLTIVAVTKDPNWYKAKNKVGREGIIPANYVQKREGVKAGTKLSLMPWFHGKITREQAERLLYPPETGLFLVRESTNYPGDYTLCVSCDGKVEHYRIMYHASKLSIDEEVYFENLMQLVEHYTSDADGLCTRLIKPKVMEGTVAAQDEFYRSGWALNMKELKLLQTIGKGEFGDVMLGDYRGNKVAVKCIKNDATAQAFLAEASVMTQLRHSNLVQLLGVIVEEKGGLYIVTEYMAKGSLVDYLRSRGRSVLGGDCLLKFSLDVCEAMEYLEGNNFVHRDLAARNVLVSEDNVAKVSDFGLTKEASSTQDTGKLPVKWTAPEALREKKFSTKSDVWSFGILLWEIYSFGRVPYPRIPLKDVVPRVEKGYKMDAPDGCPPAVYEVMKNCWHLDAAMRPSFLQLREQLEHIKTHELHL
T2 sequence (P12931 whole entry): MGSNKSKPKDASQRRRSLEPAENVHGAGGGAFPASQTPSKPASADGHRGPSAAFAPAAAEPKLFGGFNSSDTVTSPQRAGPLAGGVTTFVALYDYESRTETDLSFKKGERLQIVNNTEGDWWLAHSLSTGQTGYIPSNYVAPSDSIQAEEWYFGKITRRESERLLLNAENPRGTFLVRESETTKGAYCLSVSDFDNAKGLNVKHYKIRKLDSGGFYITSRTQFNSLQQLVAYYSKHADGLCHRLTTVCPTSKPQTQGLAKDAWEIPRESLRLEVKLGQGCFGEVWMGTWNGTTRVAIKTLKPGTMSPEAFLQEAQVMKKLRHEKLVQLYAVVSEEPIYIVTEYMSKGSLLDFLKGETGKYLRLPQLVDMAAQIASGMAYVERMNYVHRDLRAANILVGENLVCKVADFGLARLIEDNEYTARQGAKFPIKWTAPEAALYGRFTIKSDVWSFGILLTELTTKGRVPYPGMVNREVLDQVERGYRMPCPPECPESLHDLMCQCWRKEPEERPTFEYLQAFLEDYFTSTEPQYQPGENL

Row | SMILES | pIC50 (FGF receptor (FGFr)) | pIC50 (Recombinant human Src) | pIC50 (Recombinant Csk)
1 | COc1ccc(C=NNc2ncnc3c(C)c(-c4ccc(CN5CCOCC5)cc4)sc23)cc1O [Compound 46, 3-Hydroxy-4-methoxybenzaldehyde (6-(4-(morpholin-4-yl)methyl-phenyl)-7-methylthieno[3,2-d]pyrimidin-4-yl)hydrazone] | 3.99 | 8.26 | 3.99
2 | CCCOc1ccccc1-c1sc2c(NN=Cc3cccs3)ncnc2c1O [Compound 85] | 5.12 | 8.32 | 4.75
3 | CCOc1ccccc1-c1sc2c(NN=Cc3ccc(O)c(OC)c3)ncnc2c1O [Compound 88, 4-Hydroxy-3-methoxybenzaldehyde (6-(2-ethoxyphenyl)-7-hydroxythieno[3,2-d]pyrimidin-4-yl)hydrazone] | 5.64 | 8.60 | 5.47
4 | CCOc1ccccc1-c1sc2c(NN=Cc3cc(Br)c(O)c(OC)c3)ncnc2c1O [Compound 89, 3-Bromo-4-hydroxy-5-methoxybenzaldehyde (6-(2-ethoxyphenyl)-7-hydroxythieno[3,2-d]pyrimidin-4-yl)hydrazone] | 5.72 | 8.60 | 5.54
5 | CCOc1ccccc1-c1sc2c(NN=Cc3ccc(O)c(Cl)c3)ncnc2c1O [Compound 92, 3-Chloro-4-hydroxybenzaldehyde (6-(2-ethoxyphenyl)-7-hydroxythieno[3,2-d]pyrimidin-4-yl)hydrazone] | 4.56 | 8.38 | 4.95
6 | CCOc1ccccc1-c1sc2c(NN=Cc3ccncc3)ncnc2c1O [Compound 112, 4-Pyridinecarboxaldehyde (6-(2-ethoxyphenyl)-7-hydroxythieno[3,2-d]pyrimidin-4-yl)hydrazone] |  | 8.40 | 5.14
7 | CCOc1ccccc1-c1sc2c(NN=Cc3cccc(C(=O)O)c3)ncnc2c1O [Compound 116, 3-Carboxybenzaldehyde (6-(2-ethoxyphenyl)-7-hydroxythieno[3,2-d]pyrimidin-4-yl)hydrazone] |  | 8.30 | 5.15
8 | CCOc1ccccc1-c1sc2c(NN=Cc3[nH]cnc3C)ncnc2c1O [Compound 117, 4-Methyl-5-imidazolecarboxaldehyde (6-(2-ethoxyphenyl)-7-hydroxythieno[3,2-d]pyrimidin-4-yl)hydrazone] |  | 8.30 | 5.26
9 | CCOc1ccccc1-c1sc2c(NN=Cc3ccco3)ncnc2c1O [Compound 121, 2-Furancarboxaldehyde (6-(2-ethoxyphenyl)-7-hydroxythieno[3,2-d]pyrimidin-4-yl)hydrazone] |  | 8.22 | 5.30
10 | CCOc1ccccc1-c1sc2c(NN=Cc3sccc3C)ncnc2c1O [Compound 124, 3-Methyl-2-thiophenecarboxaldehyde (6-(2-ethoxyphenyl)-7-hydroxythieno[3,2-d]pyrimidin-4-yl)hydrazone] |  | 8.05 | 4.82
11 | COc1ccc(C=NNc2ncnc3c(C#N)c(-c4ccc(N)cc4)sc23)cc1O [compound 59] |  | 7.80 | 5.00
12 | CCOc1ccccc1-c1sc2c(NN=Cc3ccc(C(=O)O)cc3)ncnc2c1C#N [compound 68] |  | 8.85 | 4.59
13 | CCOc1ccccc1-c1sc2c(NN=Cc3cccc(O)c3)ncnc2c1C#N [compound 103] |  | 8.82 | 4.89
